This passage reports GI50 results from US8980934B2, “Kinase inhibitors and method of treating cancer with same” (University Health Network, priority 2012, dated 2015).

Common to all, as to format: cell-based
The test system of test [1] is ovarian 2393A tumor initiating cells. As to the kind of experiment: Ovarian tumor-initiating cell growth inhibition, Alamar Blue assay. Particulars: 144 h, ovarian TICs, 6 days culture, read-out: Tumor Initiating Cell Line GI50 Range ovarian 2393A. An excerpt: (§1) Non-tissue or tissure cultured treated T-75 flask and 96-well plates were purchased from VWR. Vitamin B-27 supplement, MEM NEAA (minimum essential medium non essential amino acids), sodium pyruvate, L-glutamine, N2 supplement, penicillin-streptomycin and fungizone/amphotericin B were obtained from Invitrogen. Lipid mixture, heparin and EGF were purchased from Sigma; bFGF from BD Biosciences. Colon tumor initiating cells (TICs) were routinely maintained using non-tissue cultured treated T-75 flasks in DMEM:F12 medium containing 0.2XB-27 supplement, 4 ug/ml heparin, 1XMEM NEAA, 1Xsodium pyruvate, 1 mM glutamine, 10 pg/ul bFGF, 20 pg/ul EGF, 1×N2 supplement, lipid mixture, penicillin-streptomycin and fungizone/amphotericin B. Ovarian TICs were routinely maintained using tissue cultured treated T-75 flasks in DMEM:F12 medium containing 1XB-27 supplement, 4 ug/ml heparin, 20 pg/ul bFGF, 20 pg/ul EGF and penicillin-streptomycin.
(§2) Compounds described herein were dissolved in DMSO and further diluted in cell culture medium for GI50 determination. Colon TICs were trypsinized and seeded into non-tissue cultured treated 96-well plates with 4,000 cells/well. After 24 h, compound was added into the cell culture at different concentrations, and the final concentration of DMSO was adjusted to 0.1%. Cells were then cultured at 37° C. for 9 days. Ovarian TICs were trypsinized and seeded into tissue cultured treated 96-well plates with 1,000 cells/well. After 24 h, compound was added into the cell culture at different concentrations, and the final concentration of DMSO was adjusted to 0.1%. Cells were then cultured at 37° C. for 6 days. Cell viability was assessed by Alamar Blue assay: 10 ul of Alamar Blue was added into each well. After 4 hours incubation at 37° C., fluorescence was recorded at excitation 544 and emission 590. GI50 (Growth inhibition) was calculated using GraphPad Prism 4.0 software. Cell growth inhibition data for compounds described herein is tabulated below (Table 2). The GI50 ranges are indicated as “A,” and “B”, for values less than or equal to 0.1 μM: those greater than 0.1 μM and less than or equal to 0.5 μM, respectively.

The subject of test [2] is colon 12 tumor initiating cells. As to the kind of experiment: Colon tumor-initiating cell growth inhibition, Alamar Blue assay. Particulars: 216 h, colon TICs, 9 days culture, read-out: Tumor Initiating Cell Line GI50 Range colon 12.
Description: as §1, §2

Test [3] relates to MDA-MB-231 breast cancer cells. The test is described as follows: Cancer cell growth inhibition, Sulforhodamine B assay. The following applies: Homo sapiens, 120 h; MDA-MB-231, 5 days culture, SRB; read-out: Cancer Cell Line GI50 Range MDA-MB-231. As to the method:
(§3) Breast cancer cells (MDA-MB-231), colon cancer cells (HCT116) and ovarian cancer cells (PA-1) were seeded (1000 to 4000 in 80 μl per well depending on the cell growth rate) into 96 well plates 24 hours before compound overlay. Compounds were prepared as 10 mM stock solutions in 100% DMSO which were diluted with DMEM (Dulbecco's Modified Eagle's Medium) cell growth Medium (Invitrogen, Burlington, ON, Canada) containing 10% FBS (Fetal Bovine Serum) to concentrations ranging from 50 nM to 250 μM. Aliquots (20 μl) from each concentration were overlaid to 80 μl of the pre-seeded cells in the 96 well plates to make final concentrations of 10 nM to 50 μM. The cells were cultured for 5 days before the Sulforhodamine B assay (SRB) was performed to determine the compound's cell growth inhibition activity.
(§4) Sulforhodamine B (purchased from Sigma, Oakville, ON, Canada) is a water-soluble dye that binds to the basic amino acids of the cellular proteins. Thus, colorimetric measurement of the bound dye provides an estimate of the total protein mass that is related to the cell number. the cells are fixed in situ by gently aspirating off the culture media and adding 50 μl ice cold 10% Trichloroacetic Acid (TCA) per well and incubate at 4° C. for 30-60 min. The plates are washed with H2O five times and allowed to air dry for 5 min. Addition of 50 μl 0.4% (w/v) SRB solution in 1% (v/v) acetic acid to each well and incubatation for 30 min at RT completes the staining reaction. Following staining, plates are washed four times with 1% acetic acid to remove unbound dye and then allowed to air dry for 5 min. The stain is solubilized with 100 μl of 10 mM Tris pH 10.5 per well. Absorbance is read at 570 nm.
(§5) The percentage (%) of relative growth inhibition was calculated by comparing to DMSO treated only cells (100%). GI50's were determined for compounds with cytotoxic activity. The GI50 was calculated using GraphPad PRISM software (GraphPad Software, Inc., San Diego, Calif., USA). GI50 (growth inhibition) is the compound concentration that causes 50% inhibition of cell growth.
(§6) In Table 1 below, GI50 value ranges for several compound examples against breast cancer cell lines (MDA-MB-231), colon cancer cell lines (HCT116) and ovarian cancer cell lines (PA-1) are given. […] The GI50 ranges are indicated as “A,” “B,” and “C,” for values less than or equal to 0.1 μM; those greater than 0.1 μM and less than or equal to 0.5 μM; and those greater than 0.5 μM, respectively.
On the technique in general: Sulforhodamine B stains cellular protein and so reports cell mass.

Test [4] has as its system PA-1 ovarian cancer cells. The test is described as above. Particulars: 120 h; PA-1, 5 days culture, SRB; read-out: Cancer Cell Line GI50 Range PA-1. As to the method:
as §3, §4, §5, §6

In test [5] the test system is HCT116 colon cancer cells. The test is described as above. The following applies: Homo sapiens, HCT-116, 120 h; HCT116, 5 days culture, SRB; read-out: Cancer Cell Line GI50 Range HCT116. How it is done: as §3, §4, §5, §6

Each structure is given as a SMILES string.

As a reminder, the GI50 is the concentration that inhibits growth by half. As for `O=C(Nc1ccc2[nH]nc(-c3ccc(N4CC5(COC5)C4)cc3)c2c1)C(c1ccsc1)N1CCCC1` (centres unmarked) [Example A1, N-(3-(4-(2-oxa-6-azaspiro[3.3]heptan-6-yl)phenyl)-1H-indazol-5-yl)-2-(pyrrolidin-1-yl)-2-(thiophen-3-yl)acetamide], the GI50 in test [1], in test [2], in test [3], in test [4] and in test [5] was ≤ 100 nM throughout.
`O=C(N[C@H](c1ccccn1)C1CCCC1)c1ccc2[nH]nc(-c3ccc(N4CC5(COC5)C4)cc3)c2c1` [Example A2, (S)-3-(4-(2-oxa-6-azaspiro[3.3]heptan-6-yl)phenyl)-N-(cyclopentyl(pyridin-2-yl)methyl)-1H-indazole-5-carboxamide]: the 50% growth inhibitory concentration (GI50) in test [1], in test [2], in test [3], in test [4] and in test [5] was ≤ 100 nM throughout.
Consider `Cc1ccccc1C(NC(=O)c1ccc2[nH]nc(-c3ccc(N4CC5(COC5)C4)cc3)c2c1)C1CC1` (centres unmarked) [Example A3, 3-(4-(2-Oxa-6-azaspiro[3.3]heptan-6-yl)phenyl)-N-(cyclopropyl(o-tolyl)methyl)-1H-indazole-5-carboxamide], for which the GI50 is 100 to 500 nM in test [1]; ≤ 100 nM in test [2]; 100 to 500 nM in test [3]; ≤ 100 nM in test [4]; ≤ 100 nM in test [5].
With `O=C(NC(c1ccccn1)C1CC1)c1ccc2[nH]nc(-c3ccc(N4CC5(COC5)C4)cc3)c2c1` (centres unmarked) [Example A4, 3-(4-(2-Oxa-6-azaspiro[3.3]heptan-6-yl)phenyl)-N-(cyclopropyl(pyridin-2-yl)methyl)-1H-indazole-5-carboxamide], the GI50 in test [1] is ≤ 100 nM; in test [2], 100 to 500 nM; in test [3] it was ≤ 100 nM; in test [4], ≤ 100 nM; in test [5], ≤ 100 nM.
Take `O=C(N[C@H](c1ccccn1)C1CC1)c1ccc2[nH]nc(-c3ccc(N4CC5(COC5)C4)cc3)c2c1` [Example A5, (S)-3-(4-(2-Oxa-6-azaspiro[3.3]heptan-6-yl)phenyl)-N-(cyclopropyl(pyridin-2-yl)methyl)-1H-indazole-5-carboxamide]: the GI50 in test [1] was ≤ 100 nM; in test [2] it was 100 to 500 nM; in test [3], ≤ 100 nM; in test [4], ≤ 100 nM; in test [5] it was ≤ 100 nM.
Consider `O=C(N[C@@H](c1ccccn1)C1CC1)c1ccc2[nH]nc(-c3ccc(N4CC5(COC5)C4)cc3)c2c1` [Example A6, (R)-3-(4-(2-oxa-6-azaspiro[3.3]heptan-6-yl)phenyl)-N-(cyclopropyl(pyridin-2-yl)methyl)-1H-indazole-5-carboxamide], for which the concentration for 50% growth inhibition (GI50) in test [1] is 100 to 500 nM; in test [2], 100 to 500 nM; in test [3], 100 to 500 nM; in test [4], ≤ 100 nM; in test [5] it was ≤ 100 nM.
Take `O=C(NC(c1ccccn1)C1CCCC1)c1ccc2[nH]nc(-c3ccc(N4CC5(COC5)C4)cc3)c2c1` (centres unmarked) [Example A7, 3-(4-(2-Oxa-6-azaspiro[3.3]heptan-6-yl)phenyl)-N-(cyclopentyl(pyridin-2-yl)methyl)-1H-indazole-5-carboxamide]: the GI50 in test [1], in test [2], in test [3], in test [4] and in test [5] was ≤ 100 nM each time.
With `O=C(N[C@@H](c1ccccn1)C1CCCC1)c1ccc2[nH]nc(-c3ccc(N4CC5(COC5)C4)cc3)c2c1` [Example A8, (R)-3-(4-(2-Oxa-6-azaspiro[3.3]heptan-6-yl)phenyl)-N-(cyclopentyl(pyridin-2-yl)methyl)-1H-indazole-5-carboxamide], the GI50 in test [1], in test [2], in test [3], in test [4] and in test [5] was ≤ 100 nM in each case.
Consider `O=C(N[C@H](c1ccccc1)C1CC1)c1ccc2[nH]nc(-c3ccc(N4CC5(COC5)C4)cc3)c2c1` [Example A10, 3-(4-(2-Oxa-6-azaspiro[3.3]heptan-6-yl)phenyl)-N-((S)-cyclopropyl(phenyl)methyl)-1H-indazole-5-carboxamide], for which the GI50 was 100 to 500 nM in test [1]; ≤ 100 nM in test [2]; 100 to 500 nM in test [3]; ≤ 100 nM in test [4]; ≤ 100 nM in test [5].
Take `CC(C)C(NC(=O)c1ccc2[nH]nc(-c3ccc(N4CC5(COC5)C4)cc3)c2c1)c1ccccc1Cl` (centres unmarked) [Example A11, 3-(4-(2-Oxa-6-azaspiro[3.3]heptan-6-yl)phenyl)-N-(1-(2-chlorophenyl)-2-methylpropyl)-1H-indazole-5-carboxamide]: the 50% growth inhibitory concentration (GI50) in test [1], in test [2], in test [3], in test [4] and in test [5] was ≤ 100 nM each time.
`CC(C)[C@H](NC(=O)c1ccc2[nH]nc(-c3ccc(N4CC5(COC5)C4)cc3)c2c1)c1ccccc1Cl` [Example A12, 3-(4-(2-Oxa-6-azaspiro[3.3]heptan-6-yl)phenyl)-N-((S)-1-(2-chlorophenyl)-2-methylpropyl)-1H-indazole-5-carboxamide]: the GI50 in test [1], in test [2], in test [3], in test [4] and in test [5] was ≤ 100 nM each time.
In the case of `O=C(NC(c1ccccn1)C1CC1)c1ccc2[nH]nc(-c3ccc(N4CCC5(CC4)COC5)cc3)c2c1` (centres unmarked) [Example A15, 3-(4-(2-Oxa-7-azaspiro[3.5]nonan-7-yl)phenyl)-N-(cyclopropyl(pyridin-2-yl)methyl)-1H-indazole-5-carboxamide], the GI50 is 100 to 500 nM in test [1]; 100 to 500 nM in test [2]; 100 to 500 nM in test [3]; ≤ 100 nM in test [4]; ≤ 100 nM in test [5].
`O=C(N[C@H](c1ccccn1)C1CC1)c1ccc2[nH]nc(-c3ccc(N4CC5(CCOCC5)C4)cc3)c2c1` [Example A18, (S)-3-(4-(7-Oxa-2-azaspiro[3.5]nonan-2-yl)phenyl)-N-(cyclopropyl(pyridin-2-yl)methyl)-1H-indazole-5-carboxamide]: the GI50 is 100 to 500 nM in test [1]; ≤ 100 nM in test [2]; ≤ 100 nM in test [3]; ≤ 100 nM in test [4]; ≤ 100 nM in test [5].
